SMILES | melting point [°C]
CCN/C(=N\S(=O)(=O)/C=C/c1ccccc1)N1CC(CC)C=N1 (stereo not drawn) [compound 29, Trans-2-phenyl-ethenesulfonic acid ethylamino-(4-ethyl-4,5-dihydro-pyrazol-1-yl)-methylene-amide] | 91 to 92
CCN/C(=N\S(=O)(=O)c1ccc(N)cc1)N1CC2(C=N1)CCCC2 [compound 4, 4-Amino-N-[(2,3-diaza-spiro[4.4]non-3-en-2-yl)-ethylamino-methylene]-benzenesulfonamide] | 141 to 142
CC1(C)C=NN(/C(N)=N/S(=O)(=O)c2ccc(Cl)s2)C1 [compound 33, 5-Chloro-thiophene-2-sulfonic acid amino-(4,4-dimethyl-4,5-dihydro-pyrazol-1-yl)-methylene-amide] | 164 to 165
CCNC(=S)N1CC(C)(C)C=N1 [compound 5, 4,4-Dimethyl-4,5-dihydro-pyrazole-1-carbothioic acid ethylamide] | 66 to 67
NS(=O)(=O)c1ccc(NC(=O)C(F)(F)F)c(Br)c1 [compound 14, N-(2-Bromo-4-sulfamoyl-phenyl)-2,2,2-trifluoro-acetamide] | 171 to 172

Further lines, results first:

melting point [°C] | SMILES
87 to 88 | CCN/C(=N\S(=O)(=O)c1ccccc1Cl)N1CCC(CC)=N1
120 to 121 | CCNC(=S)N1CC2(C=N1)CCCC2 [compound 1, 2,3-Diazaspiro[4.4]non-3-ene-2-carbothioic acid ethylamide]
109 to 110 | NS(=O)(=O)c1ccc(Cl)s1 [compound 30, 5-Chloro-thiophene-2-sulfonic acid amide]
184 to 185 | NS(=O)(=O)c1c(Cl)nc2sccn12 [compound 21, 6-Chloro-imidazo[2,1-b]thiazole-5-sulfonic acid amide]
149 to 150 | CC1(C)C=NN(C(N)=S)C1 [compound 31, 4,4-Dimethyl-4,5-dihydro-pyrazole-1-carbothioic acid amide]
58 to 59 | O=C(Nc1ccccc1Br)C(F)(F)F [compound 12, N-(2-Bromo-phenyl)-2,2,2-trifluoro-acetamide]
60 to 61 | O=C(Nc1ccc(S(=O)(=O)Cl)cc1Br)C(F)(F)F [compound 13, 3-Bromo-4-(2,2,2-trifluoro-acetylamino)-benzenesulfonyl chloride]
